From patent US10000507B2, “Furo- and thieno-pyridine carboxamide compounds useful as pim kinase inhibitors” (Incyte Corporation, priority 2013, dated 2018)

Columns and labels:
Assay type in all cases: biochemical
Pim-1 = Pim-1 (Homo sapiens (Human), UniProt P11309); test: Pim-1 kinase assay; details: 1 mM ATP, biotin-labeled BAD peptide substrate; read-out: Pim1 IC50
Method in brief: (§1)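 Biotin-BAD peptide ([…]) phosphorylated with 1 mM ATP by 2.5 pM Pim-1 or 1.25 pM Pim-3, 1 h at 25 °C in Tris pH 7.5, MgCl2, DTT buffer. EDTA stop with anti-phospho-BAD (Ser112) antibody and AlphaScreen streptavidin donor/Protein-A acceptor beads; signal read after 1 h dark incubation.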

Pim-3 = Pim-3 (Homo sapiens (Human), UniProt Q86V86); test: Pim-3 kinase assay; details: 1 mM ATP, biotin-labeled BAD peptide substrate; read-out: Pim3 IC50
Method in brief: as §1

Pim-2 = Pim-2 (Homo sapiens (Human), UniProt Q9P1W9); test: Pim-2 kinase assay; details: 1 mM ATP, fluorescein-labeled CREBtide peptide substrate; read-out: Pim2 IC50
Method in brief: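 TR-FRET assay: 1 nM Pim-2 with 0.05 μM fluorescein-CREBtide and 1 mM ATP in Tris pH 7.5, 5 mM MgCl2, 5 mM DTT, 2 h at 25 °C. EDTA stop, then Tb-anti-pCREB Ser133 antibody for 30 min before reading.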

Pim-1, sequence (P11309 whole entry): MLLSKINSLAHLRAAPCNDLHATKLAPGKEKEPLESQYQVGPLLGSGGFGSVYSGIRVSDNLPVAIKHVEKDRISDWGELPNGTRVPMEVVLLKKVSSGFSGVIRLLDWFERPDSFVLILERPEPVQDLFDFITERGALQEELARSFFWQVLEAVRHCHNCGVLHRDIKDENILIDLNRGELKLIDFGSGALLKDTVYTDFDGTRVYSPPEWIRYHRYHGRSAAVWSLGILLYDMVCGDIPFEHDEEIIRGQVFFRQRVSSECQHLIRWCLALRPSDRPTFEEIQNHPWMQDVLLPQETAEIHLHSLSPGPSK
Pim-2, sequence (Q9P1W9 whole entry): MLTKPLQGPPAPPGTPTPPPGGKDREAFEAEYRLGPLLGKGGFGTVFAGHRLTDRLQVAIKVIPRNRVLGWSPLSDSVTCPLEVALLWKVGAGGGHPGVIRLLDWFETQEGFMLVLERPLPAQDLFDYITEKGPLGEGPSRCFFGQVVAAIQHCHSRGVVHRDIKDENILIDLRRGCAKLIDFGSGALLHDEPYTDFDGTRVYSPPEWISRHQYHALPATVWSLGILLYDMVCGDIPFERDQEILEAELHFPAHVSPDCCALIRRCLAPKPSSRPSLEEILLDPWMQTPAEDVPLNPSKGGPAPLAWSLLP

CC(C)c1cnc2c(C(=O)Nc3cnccc3N3C[C@@H](N)[C@@H](n4ccnn4)[C@@H](C)C3)c(N)oc2c1 [Example 102, 2-Amino-N-{4-[(3R,4S,5S)-3-amino-5-methyl-4-(1H-1,2,3-triazol-1-yl)piperidin-1-yl]pyridin-3-yl}-6-isopropylfuro[3,2-b]pyridine-3-carboxamide]
IC50 (Pim-1): ≤ 0.01 µM | IC50 (Pim-3): ≤ 0.01 µM | IC50 (Pim-2): 0.01 to 0.1 µM

COC1CCN(Cc2cnc3c(C(=O)Nc4cnccc4N4C[C@@H](N)C[C@@H](C(F)(F)F)C4)c(N)oc3c2)C1 (stereo partly drawn) [Example 103, 2-Amino-N-{4-[(3S,5R)-3-amino-5-(trifluoromethyl)piperidin-1-yl]pyridin-3-yl}-6-[(3-methoxypyrrolidin-1-yl)methyl]furo[3,2-b]pyridine-3-carboxamide]
IC50 (Pim-1): ≤ 0.01 µM | IC50 (Pim-3): ≤ 0.01 µM | IC50 (Pim-2): 0.01 to 0.1 µM

CCOC1CCN(Cc2cnc3c(C(=O)Nc4cnccc4N4C[C@@H](N)C[C@@H](C(F)(F)F)C4)c(N)oc3c2)C1 (stereo partly drawn) [Example 104, 2-Amino-N-{4-[(3S,5R)-3-amino-5-(trifluoromethyl)piperidin-1-yl]pyridin-3-yl}-6-[(3-ethoxypyrrolidin-1-yl)methyl]furo[3,2-b]pyridine-3-carboxamide]
IC50 (Pim-1): ≤ 0.01 µM | IC50 (Pim-3): ≤ 0.01 µM | IC50 (Pim-2): 0.01 to 0.1 µM

Nc1oc2cc(CN3CC[C@@H](F)C3)cnc2c1C(=O)Nc1cnccc1N1C[C@@H](N)C[C@@H](C(F)(F)F)C1 [Example 105, 2-Amino-N-{4-[(3S,5R)-3-amino-5-(trifluoromethyl)piperidin-1-yl]pyridin-3-yl}-6-{[(3R)-3-fluoropyrrolidin-1-yl]methyl}furo[3,2-b]pyridine-3-carboxamide]
IC50 (Pim-1): ≤ 0.01 µM | IC50 (Pim-3): ≤ 0.01 µM | IC50 (Pim-2): 0.01 to 0.1 µM

Nc1oc2cc(CN3CC[C@H](F)C3)cnc2c1C(=O)Nc1cnccc1N1C[C@@H](N)C[C@@H](C(F)(F)F)C1 [Example 106, 2-Amino-N-{4-[(3S,5R)-3-amino-5-(trifluoromethyl)piperidin-1-yl]pyridin-3-yl}-6-{[(3S)-3-fluoropyrrolidin-1-yl]methyl}furo[3,2-b]pyridine-3-carboxamide]
IC50 (Pim-1): ≤ 0.01 µM | IC50 (Pim-3): ≤ 0.01 µM | IC50 (Pim-2): 0.01 to 0.1 µM

COC1CCN(Cc2cnc3c(C(=O)Nc4cnccc4N4C[C@@H](N)C[C@@H](C(F)(F)F)C4)c(N)oc3c2)CC1 [Example 107, 2-Amino-N-{4-[(3S,5R)-3-amino-5-(trifluoromethyl)piperidin-1-yl]pyridin-3-yl}-6-[(4-methoxypiperidin-1-yl)methyl]furo[3,2-b]pyridine-3-carboxamide]
IC50 (Pim-1): ≤ 0.01 µM | IC50 (Pim-3): ≤ 0.01 µM | IC50 (Pim-2): 0.01 to 0.1 µM

CN1CCN(Cc2cnc3c(C(=O)Nc4cnccc4N4C[C@@H](N)C[C@@H](C(F)(F)F)C4)c(N)oc3c2)CC1 [Example 108, 2-Amino-N-{4-[(3S,5R)-3-amino-5-(trifluoromethyl)piperidin-1-yl]pyridin-3-yl}-6-[(4-methylpiperazin-1-yl)methyl]furo[3,2-b]pyridine-3-carboxamide]
IC50 (Pim-1): ≤ 0.01 µM | IC50 (Pim-3): ≤ 0.01 µM | IC50 (Pim-2): 0.01 to 0.1 µM

Cn1cc(-c2cnc3c(C(=O)Nc4cnccc4N4C[C@@H](N)C[C@@H](C(F)(F)F)C4)c(N)oc3c2)cn1 [Example 109, 2-Amino-N-{4-[(3S,5R)-3-amino-5-(trifluoromethyl)piperidin-1-yl]pyridin-3-yl}-6-(1-methyl-1H-pyrazol-4-yl)furo[3,2-b]pyridine-3-carboxamide]
IC50 (Pim-1): ≤ 0.01 µM | IC50 (Pim-3): ≤ 0.01 µM | IC50 (Pim-2): 0.01 to 0.1 µM

C[C@@H]1C[C@H](N)CN(c2ccncc2NC(=O)c2c(N)oc3cc(-c4cnn(C)c4)cnc23)C1 [Example 110, 2-Amino-N-{4-[(3S,5R)-3-amino-5-methylpiperidin-1-yl]pyridin-3-yl}-6-(1-methyl-1H-pyrazol-4-yl)furo[3,2-b]pyridine-3-carboxamide]
IC50 (Pim-1): ≤ 0.01 µM | IC50 (Pim-3): ≤ 0.01 µM | IC50 (Pim-2): 0.01 to 0.1 µM

Nc1oc2cc(-c3cncnc3)cnc2c1C(=O)Nc1cnccc1N1C[C@@H](N)C[C@@H](C(F)(F)F)C1 [Example 111, 2-Amino-N-{4-[(3S,5R)-3-amino-5-(trifluoromethyl)piperidin-1-yl]pyridin-3-yl}-6-pyrimidin-5-ylfuro[3,2-b]pyridine-3-carboxamide]
IC50 (Pim-1): ≤ 0.01 µM | IC50 (Pim-3): ≤ 0.01 µM | IC50 (Pim-2): 0.01 to 0.1 µM

C[C@@H]1C[C@H](N)CN(c2ccncc2NC(=O)c2c(N)oc3cc(-c4cncnc4)cnc23)C1 [Example 112, 2-Amino-N-{4-[(3S,5R)-3-amino-5-methylpiperidin-1-yl]pyridin-3-yl}-6-pyrimidin-5-ylfuro[3,2-b]pyridine-3-carboxamide]
IC50 (Pim-1): ≤ 0.01 µM | IC50 (Pim-3): ≤ 0.01 µM | IC50 (Pim-2): 0.01 to 0.1 µM

Nc1oc2cc(C3CC3)cnc2c1C(=O)Nc1cnccc1N1C[C@@H](N)C[C@@H](C(F)(F)F)C1 [Example 113, 2-Amino-N-{4-[(3S,5R)-3-amino-5-(trifluoromethyl)piperidin-1-yl]pyridin-3-yl}-6-cyclopropylfuro[3,2-b]pyridine-3-carboxamide]
IC50 (Pim-1): ≤ 0.01 µM | IC50 (Pim-3): ≤ 0.01 µM | IC50 (Pim-2): ≤ 0.01 µM

C[C@@H]1C[C@H](N)CN(c2ccncc2NC(=O)c2c(N)oc3cc(C4CC4)cnc23)C1 [Example 114, 2-Amino-N-{4-[(3S,5R)-3-amino-5-methylpiperidin-1-yl]pyridin-3-yl}-6-cyclopropylfuro[3,2-b]pyridine-3-carboxamide]
IC50 (Pim-1): ≤ 0.01 µM | IC50 (Pim-3): ≤ 0.01 µM | IC50 (Pim-2): ≤ 0.01 µM

Cc1cnc2c(C(=O)Nc3cnccc3N3C[C@@H](N)C[C@@H](C(F)(F)F)C3)c(N)oc2c1 [Example 115, 2-Amino-N-{4-[(3S,5R)-3-amino-5-(trifluoromethyl)piperidin-1-yl]pyridin-3-yl}-6-methylfuro[3,2-b]pyridine-3-carboxamide]
IC50 (Pim-1): ≤ 0.01 µM | IC50 (Pim-3): ≤ 0.01 µM | IC50 (Pim-2): ≤ 0.01 µM

Cc1cnc2c(C(=O)Nc3cnccc3N3C[C@H](C)C[C@H](N)C3)c(N)oc2c1 [Example 116, 2-Amino-N-{4-[(3S,5R)-3-amino-5-methylpiperidin-1-yl]pyridin-3-yl}-6-methylfuro[3,2-b]pyridine-3-carboxamide]
IC50 (Pim-1): ≤ 0.01 µM | IC50 (Pim-3): ≤ 0.01 µM | IC50 (Pim-2): 0.01 to 0.1 µM

CCc1cnc2c(C(=O)Nc3cnccc3N3C[C@H](C)C[C@H](N)C3)c(N)oc2c1 [Example 117, 2-Amino-N-{4-[(3S,5R)-3-amino-5-methylpiperidin-1-yl]pyridin-3-yl}-6-ethylfuro[3,2-b]pyridine-3-carboxamide]
IC50 (Pim-1): ≤ 0.01 µM | IC50 (Pim-3): ≤ 0.01 µM | IC50 (Pim-2): ≤ 0.01 µM

CCc1cnc2c(C(=O)Nc3cnccc3N3C[C@@H](N)C[C@@H](C(F)(F)F)C3)c(N)oc2c1 [Example 118, 2-Amino-N-{4-[(3S,5R)-3-amino-5-(trifluoromethyl)piperidin-1-yl]pyridin-3-yl}-6-ethylfuro[3,2-b]pyridine-3-carboxamide]
IC50 (Pim-1): ≤ 0.01 µM | IC50 (Pim-3): ≤ 0.01 µM | IC50 (Pim-2): ≤ 0.01 µM

C[C@@H]1C[C@H](N)CN(c2ccncc2NC(=O)c2c(N)oc3cc(-c4c(F)cccc4F)cnc23)C1 [Example 119, 2-Amino-N-{4-[(3S,5R)-3-amino-5-methylpiperidin-1-yl]pyridin-3-yl}-6-(2,6-difluorophenyl)furo[3,2-b]pyridine-3-carboxamide]
IC50 (Pim-1): ≤ 0.01 µM | IC50 (Pim-3): ≤ 0.01 µM | IC50 (Pim-2): 0.01 to 0.1 µM

C[C@@H]1C[C@H](N)CN(c2ccncc2NC(=O)c2c(N)oc3cc(OC(F)F)cnc23)C1 [Example 120, 2-Amino-N-(4-((3S,5R)-3-amino-5-methylpiperidin-1-yl)pyridin-3-yl)-6-(difluoromethoxy)furo[3,2-b]pyridine-3-carboxamide]
IC50 (Pim-1): ≤ 0.01 µM | IC50 (Pim-3): ≤ 0.01 µM | IC50 (Pim-2): 0.01 to 0.1 µM

CC(C)Oc1cnc2c(C(=O)Nc3cnccc3N3C[C@H](C)C[C@H](N)C3)c(N)oc2c1 [Example 121, 2-Amino-N-(4-((3S,5R)-3-amino-5-methylpiperidin-1-yl)pyridin-3-yl)-6-isopropoxyfuro[3,2-b]pyridine-3-carboxamide]
IC50 (Pim-1): ≤ 0.01 µM | IC50 (Pim-3): ≤ 0.01 µM | IC50 (Pim-2): 0.01 to 0.1 µM

C[C@@H]1C[C@H](N)CN(c2ccncc2NC(=O)c2c(N)oc3cc(C4CCOC4)cnc23)C1 (stereo partly drawn) [Example 122, 2-Amino-N-(4-((3S,5R)-3-amino-5-methylpiperidin-1-yl)pyridin-3-yl)-6-(tetrahydrofuran-3-yl)furo[3,2-b]pyridine-3-carboxamide]
IC50 (Pim-1): ≤ 0.01 µM | IC50 (Pim-3): ≤ 0.01 µM | IC50 (Pim-2): ≤ 0.01 µM

Nc1oc2cc(C3CCOC3)cnc2c1C(=O)Nc1cnccc1N1C[C@@H](N)C[C@@H](C(F)(F)F)C1 (stereo partly drawn) [Example 123, 2-Amino-N-{4-[(3S,5R)-3-amino-5-(trifluoromethyl)piperidin-1-yl]pyridin-3-yl}-6-(tetrahydrofuran-3-yl)furo[3,2-b]pyridine-3-carboxamide]
IC50 (Pim-1): ≤ 0.01 µM | IC50 (Pim-3): ≤ 0.01 µM | IC50 (Pim-2): ≤ 0.01 µM

C[C@H]1CN(c2ccncc2NC(=O)c2c(N)oc3cc(C4CCC4)cnc23)C[C@@H](N)[C@@H]1O [Example 124, 2-Amino-N-{4-[(3R,4R,5S)-3-amino-4-hydroxy-5-methylpiperidin-1-yl]pyridin-3-yl}-6-cyclobutylfuro[3,2-b]pyridine-3-carboxamide]
IC50 (Pim-1): ≤ 0.01 µM | IC50 (Pim-3): ≤ 0.01 µM | IC50 (Pim-2): ≤ 0.01 µM

Nc1oc2cc(C3CCC3)cnc2c1C(=O)Nc1cnccc1N1C[C@@H](N)[C@H](O)[C@@H](C2CC2)C1 [Example 125, 2-Amino-N-{4-[(3R,4R,5S)-3-amino-5-cyclopropyl-4-hydroxypiperidin-1-yl]pyridin-3-yl}-6-cyclobutylfuro[3,2-b]pyridine-3-carboxamide]
IC50 (Pim-1): ≤ 0.01 µM | IC50 (Pim-3): ≤ 0.01 µM | IC50 (Pim-2): ≤ 0.01 µM
